Results as given in patent US10195156B2, “Compounds and compositions for intracellular delivery of agents” (ModernaTX, Inc., priority 2015, dated 2019).

Columns and labels:
[1] = Particle size and polydispersity index of nanoparticle compositions (Zetasizer Nano ZS); type: physicochemical; conditions: for particle size, rank within the named table (in words): comparison amongst compositions
Outline: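 Values are size and PDI readings from a Zetasizer Nano ZS. Measurements are taken in 1×PBS; zeta potential, by contrast, uses 15 mM PBS.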

[2] = Encapsulation efficiency of RNA (QUANT-IT RIBOGREEN RNA assay); type: physicochemical
Outline: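 RiboGreen fluorescence (ex ~480, em ~520 nm) measured after 15 min at 37 °C on samples at ~5 μg/mL in TE, pH 7.5, ± 2% Triton X-100 solution. After blank subtraction, free RNA is given as intact-sample signal divided by disrupted-sample signal.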

[3] = pKa of nanoparticle compositions; type: physicochemical
[4] = test system: luciferase (Luc) mRNA expression; test: Expression of Luc induced by sample formulations, whole-body bioluminescence after intravenous administration; type: in vivo; conditions: mice, i.v., 0.5 mg/kg
Outline: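 Read-out is whole-body bioluminescence at 3, 6 and 24 h after a single intravenous dose of 0.5 mg/kg Luc mRNA in nanoparticle formulations. Groups of n=6 mice; PBS and standard MC3 formulation as references.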

[5] = test system: modified luciferase expression; test: Expression of Luc in different organs (liver, lung, spleen, femur) 6 hours after intravenous administration; type: in vivo; conditions: i.v., 0.5 mpk
Experimental: The efficacy of the nanoparticle compositions presented in Tables 1, 1a, 17-1, 19-1, 20-1 and 21-1 was further evaluated by measuring the expression of modified luciferase in the liver, lung, spleen, and femur upon administration of a given composition. Formulations were administered intravenously to mice (n=3) at a dosage of 0.5 mpk and bioluminescence measured after 6 hours. The standard MC3 formulation and a PBS control were also tested.

IL-6 = test: Cytokine production induced by sample formulations: IL-6; type: in vivo; conditions: mice, i.v., 0.5 mpk, 6 hours; for IL-6: in pg/mL (unit assumed)
Outline: (§1)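 Cytokine levels were quantified at 6 hours in mice given the nanoparticle compositions i.v. at 0.5 mpk. MC3 standard formulation and PBS served as comparators.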

IP-10 = test: Cytokine production induced by sample formulations: IP-10; type: in vivo; conditions: mice, i.v., 0.5 mpk, 6 hours; for IP-10: in pg/mL (unit assumed)
Outline: as §1

[6] = Table 20-1, rows without footnote mark

## CCCCC/C=C\C/C=C\CCCCCCCCN(CCCCCCCC/C=C\C/C=C\CCCCC)CCN1CCN(CCCCCCCCCCCC)CC1 [Compound 19-6, (9Z,12Z)—N-(2-(4-Dodecylpiperazin-1-yl)ethyl)-N-((9Z,12Z)-octadeca-9,12-dien-1-yl)octadeca-9,12-dien-1-amine]
[1]; Table 19-1
  PDI: 0.088
  Size (nm): 137.7 nm
[1]
  particle size, rank within the named table (in words): largest particles
[2]; Table 19-1
  EE (%): 16.9%
[2]; comparison amongst compositions
  encapsulation efficiency, rank within the named table (in words): lowest encapsulation efficiency
[3]; Table 19-1
  pKa: 5.89
[4]; Table 19-2, 3 hours
  Total Flux 3 hours: 1.07E+07
[4]; Table 19-2
  Total Flux 6 hours: 1.27E+07
  Total Flux 24 hours: 1.29E+06
[4]; each time point
  total flux / Luc expression, rank within the named table (in words): next highest flux
[5]; Table 19-3, mice, liver
  Total Flux Liver: 3.27E+06
[5]; Table 19-3, mice
  Total Flux Lung: 1.81E+05
  Total Flux Spleen: 3.47E+06
IL-6; Table 19-4
  IL-6: 7571
IL-6
  IL-6 induction, rank within the named table (in words): highest IL-6 expression
IP-10; Table 19-4
  IP-10: 433
IP-10
  IP-10 induction, rank or comparison with IL-6 (in words): highest IP-10 expression

## CCCCCCCCCCCCN(CCO)CCN(CCCCCCCCCCCC)CCCCCC(=O)OCCCCC [Compound 20-2, Pentyl 6-(dodecyl(2-(dodecyl(2-hydroxyethyl)amino)ethyl)amino)hexanoate]
[1]; [6]
  PDI: 0.130
  Size (nm): 71.8 nm
[2]; [6]
  EE (%): 91.6%
[3]; [6]
  pKa: 6.60
[4]; Table 20-2, 3 hours
  Total Flux 3 hours: 1.35E+09
[4]; Table 20-2
  Total Flux 6 hours: 2.18E+09
  Total Flux 24 hours: 6.49E+07
[5]; Table 20-3, mice
  Total Flux Femur: 1.07E+06
  Total Flux Lung: 4.52E+06
  Total Flux Spleen: 3.12E+07
[5]; Table 20-3, mice, liver
  Total Flux Liver: 6.01E+08
IL-6; Table 20-4, formula (20-I)
  IL-6: 118.5
IP-10; Table 20-4, formula (20-I)
  IP-10: 522.9

## CCCCCCCCCCCCN(CCCCCCCCCCCC)CCN(CCO)CCCCCC(=O)OCCCCC [Compound 20-3, Pentyl 6-((2-(didodecylamino)ethyl)(2-hydroxyethyl)amino)hexanoate]
[1]; [6]
  PDI: 0.110
  Size (nm): 76.4 nm
[2]; [6]
  EE (%): 95.8%
[3]; [6]
  pKa: 6.82
[4]; Table 20-2, 3 hours
  Total Flux 3 hours: 5.35E+09
[4]; Table 20-2
  Total Flux 6 hours: 3.00E+09
  Total Flux 24 hours: 6.49E+07
[5]; Table 20-3, mice
  Total Flux Femur: 1.73E+06
  Total Flux Lung: 6.08E+05
  Total Flux Spleen: 6.35E+06
[5]; Table 20-3, mice, liver
  Total Flux Liver: 4.33E+08
IL-6; Table 20-4, formula (20-I)
  IL-6: 105.8
IP-10; Table 20-4, formula (20-I)
  IP-10: 671.5

## CCCCCCCOC(=O)CCCCCN(CCO)CCN(CCCCCC(=O)OCCCCCCC)CCCCCC(=O)OCCCCCCC [Compound 20-5, Diheptyl 6,6′-((2-((6-(heptyloxy)-6-oxohexyl)(2hydroxyethyl)amino)ethyl)azanediyl)dihexanoate]
[1]; [6]
  PDI: 0.210
  Size (nm): 119.3 nm
[2]; [6]
  EE (%): 78.1%
[3]; [6]
  pKa: 6.79
[4]; Table 20-2, 3 hours
  Total Flux 3 hours: 6.07E+07
[4]; Table 20-2
  Total Flux 6 hours: 1.99E+07
  Total Flux 24 hours: 2.07E+06
[5]; Table 20-3, mice
  Total Flux Femur: 9.53E+04
  Total Flux Lung: 5.80E+04
  Total Flux Spleen: 3.40E+06
[5]; Table 20-3, mice, liver
  Total Flux Liver: 2.67E+06
IL-6; Table 20-4, formula (20-I)
  IL-6: 140.8
IP-10; Table 20-4, formula (20-I)
  IP-10: 2012.3

## CCCCCCCCCCCCN(CCO)CCN(CCCCCCCCCCCC)CCCCCC(=O)OCCCCCCC [Compound 20-7, Heptyl 6-(dodecyl(2-(dodecyl(2-hydroxyethyl)amino)ethyl)amino)hexanoate]
[1]; [6]
  PDI: 0.170
  Size (nm): 73.6 nm
[2]; [6]
  EE (%): 92.4%
[3]; [6]
  pKa: 6.66
[4]; Table 20-2, 3 hours
  Total Flux 3 hours: 1.22E+10
[4]; Table 20-2
  Total Flux 6 hours: 8.94E+09
  Total Flux 24 hours: 2.65E+08
[4]; 3 hours
  total flux after 3 hours, rank within the named table (in words): highest after 3 hours
[5]; Table 20-3, mice, liver
  Total Flux Liver: 1.00E+09
[5]; Table 20-3, mice
  Total Flux Lung: 1.38E+07
  Total Flux Spleen: 4.58E+07
[5]; mice, liver
  total flux in the liver, rank within the named table (in words): highest
IL-6; Table 20-4, formula (20-I)
  IL-6: 24.5
IP-10; Table 20-4, formula (20-I)
  IP-10: 696.3

## CCCCCCCCCCCCN(CCCCCCCCCCCC)CCN(CCO)CCCCCCCC(=O)OCCCCCCCCC [Compound 20-8, Nonyl 8-((2-(didodecylamino)ethyl)(2-hydroxyethyl)amino)octanoate]
[1]; [6]
  PDI: 0.141
  Size (nm): 67.9 nm
[1]
  particle size, rank within the named table (in words): smallest particles
[2]; [6]
  EE (%): 96.6%
[3]; [6]
  pKa: 6.43
[4]; Table 20-2, 3 hours
  Total Flux 3 hours: 2.76E+09
[4]; Table 20-2
  Total Flux 6 hours: 4.37E+09
  Total Flux 24 hours: 1.30E+08
[5]; Table 20-3, mice
  Total Flux Femur: 1.62E+06
  Total Flux Lung: 3.45E+06
  Total Flux Spleen: 2.70E+07
[5]; Table 20-3, mice, liver
  Total Flux Liver: 8.09E+08
IL-6; Table 20-4, formula (20-I)
  IL-6: 18.4
IP-10; Table 20-4, formula (20-I)
  IP-10: 134.0

## CCCCCCCCCCCCN(CCCCCCCCCCCC)CCN(CCO)CCCCCCCC(=O)OC(CCCCCCCC)CCCCCCCC [Compound 20-9, Heptadecan-9-yl 8-((2-(didodecylamino)ethyl)(2-hydroxyethyl)amino)octanoate]
[1]; [6]
  PDI: 0.130
  Size (nm): 64.5 nm
[1]
  particle size, rank within the named table (in words): smallest particles
[2]; [6]
  EE (%): 95.9%
[3]; [6]
  pKa: 6.22
[4]; Table 20-2, 3 hours
  Total Flux 3 hours: 3.65E+08
[4]; Table 20-2
  Total Flux 6 hours: 6.91E+08
  Total Flux 24 hours: 4.81E+07
[5]; Table 20-3, mice
  Total Flux Femur: 2.89E+05
  Total Flux Lung: 1.30E+06
  Total Flux Spleen: 5.11E+06
[5]; Table 20-3, mice, liver
  Total Flux Liver: 1.57E+08
IL-6; Table 20-4, formula (20-I)
  IL-6: 152.1
IP-10; Table 20-4, formula (20-I)
  IP-10: 271.1

## CCCCCCCCCCCCN(CCO)CCN(CCCCCCCC(=O)OCCCCCCCCC)CCCCCCCC(=O)OCCCCCCCCC [Compound 20-10, Dinonyl 8,8′-((2-(dodecyl(2-hydroxyethyl)amino)ethyl)azanediyl)dioctanoate]
[1]; [6]
  PDI: 0.130
  Size (nm): 85.7 nm
[2]; [6]
  EE (%): 91.4%
[3]; [6]
  pKa: 6.42
[4]; Table 20-2, 3 hours
  Total Flux 3 hours: 5.05E+09
[4]; Table 20-2
  Total Flux 6 hours: 2.16E+09
  Total Flux 24 hours: 2.54E+08
[5]; Table 20-3, mice
  Total Flux Femur: 3.09E+06
  Total Flux Lung: 5.01E+06
  Total Flux Spleen: 9.67E+07
[5]; Table 20-3, mice, liver
  Total Flux Liver: 4.40E+08
IL-6; Table 20-4, formula (20-I)
  IL-6: 739.0
IL-6
  IL-6 induction, rank within the named table (in words): highest
IP-10; Table 20-4, formula (20-I)
  IP-10: 2356.8

## CCCCCCCCCCCCCCN(CCCCCCCCCCCCCC)CCN(CCCO)CCCCCCCCCCCC [Compound 20-11, 3-((2-(Ditetradecylamino)ethyl)(dodecyl)amino)propan-1-ol]
[1]; [6]
  PDI: 0.118
  Size (nm): 96.1 nm
[2]; [6]
  EE (%): 97.5%
[3]; [6]
  pKa: 5.38
[4]; Table 20-2, 3 hours
  Total Flux 3 hours: 1.44E+09
[4]; Table 20-2
  Total Flux 6 hours: 8.83E+08
  Total Flux 24 hours: 2.40E+07
[5]; Table 20-3, mice, liver
  Total Flux Liver: 3.60E+08
[5]; Table 20-3, mice
  Total Flux Lung: 5.86E+05
  Total Flux Spleen: 9.24E+06
IL-6; Table 20-4, formula (20-I)
  IL-6: 46.9
IP-10; Table 20-4, formula (20-I)
  IP-10: 1700.5
